Experimental data: PubChem BioAssay AID1963972 (Molecular Pharmacology Branch, DTP, NCI, 2024)
pIC50: −log10 of the molar value. Each block holds one compound with its values, some of them ahead of it.

Test system: 945468-187-T-J2-PDC spheroids viability
Assay: Anticancer human tumor 945468-187-T-J2-PDC patient-derived rectal carcinoma cell line growth inhibition [PI3K]
Details: spheroids with HUVEC and MSC; for pIC50: curve of first compound; for viability, T/C: stronger effect = lower value
How it was run: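 Tumor cells were combined with HUVEC and MSCs into spheroids, then dosed with PI3K-inhibitor combinations over half-log ranges capped near clinical Cmax or 10 microM.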

[1] = second compound 0.0316 µM, first compound 0.0316 µM
[2] = second compound 0.0316 µM, first compound 0.1 µM
[3] = second compound 0.0316 µM, first compound 0.316 µM
[4] = second compound 0.0316 µM, first compound 1 µM
[5] = second compound 0.0316 µM, first compound 3.16 µM
[6] = second compound 0.0316 µM, first compound 10 µM
[7] = second compound 0.1 µM, first compound 0.0316 µM
[8] = second compound 0.1 µM, first compound 0.1 µM
[9] = second compound 0.1 µM, first compound 0.316 µM
[10] = second compound 0.1 µM, first compound 1 µM
[11] = second compound 0.1 µM, first compound 3.16 µM
[12] = second compound 0.1 µM, first compound 10 µM
[13] = second compound 0.316 µM, first compound 0.0316 µM
[14] = second compound 0.316 µM, first compound 0.1 µM
[15] = second compound 0.316 µM, first compound 0.316 µM
[16] = second compound 0.316 µM, first compound 1 µM
[17] = second compound 0.316 µM, first compound 3.16 µM
[18] = second compound 0.316 µM, first compound 10 µM
[19] = second compound 1 µM, first compound 0.0316 µM
[20] = second compound 1 µM, first compound 0.1 µM
[21] = second compound 1 µM, first compound 0.316 µM
[22] = second compound 1 µM, first compound 1 µM
[23] = second compound 1 µM, first compound 3.16 µM
[24] = second compound 1 µM, first compound 10 µM
[25] = second compound 3.16 µM, first compound 0.0316 µM
[26] = second compound 3.16 µM, first compound 0.1 µM
[27] = second compound 3.16 µM, first compound 0.316 µM
[28] = second compound 3.16 µM, first compound 1 µM
[29] = second compound 3.16 µM, first compound 3.16 µM
[30] = second compound 3.16 µM, first compound 10 µM
[31] = second compound 10 µM, first compound 0.0316 µM
[32] = second compound 10 µM, first compound 0.1 µM
[33] = second compound 10 µM, first compound 0.316 µM
[34] = second compound 10 µM, first compound 1 µM
[35] = second compound 10 µM, first compound 3.16 µM
[36] = second compound 10 µM, first compound 10 µM
[37] = second compound 0.0316 µM, first compound 0.00316 µM
[38] = second compound 0.0316 µM, first compound 0.01 µM
[39] = second compound 0.1 µM, first compound 0.00316 µM
[40] = second compound 0.1 µM, first compound 0.01 µM
[41] = second compound 0.316 µM, first compound 0.00316 µM
[42] = second compound 0.316 µM, first compound 0.01 µM
[43] = second compound 1 µM, first compound 0.00316 µM
[44] = second compound 1 µM, first compound 0.01 µM
[45] = second compound 3.16 µM, first compound 0.00316 µM
[46] = second compound 3.16 µM, first compound 0.01 µM
[47] = second compound 10 µM, first compound 0.00316 µM
[48] = second compound 10 µM, first compound 0.01 µM
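Further: spheroids exposed to compounds for seven days before reading.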

- pIC50 (second compound 0.0316 µM): < 5.00
- pIC50 (second compound 0.1 µM): < 5.00
- pIC50 (second compound 0.316 µM): < 5.00
- pIC50 (second compound 1 µM): < 5.00
- pIC50 (second compound 3.16 µM): < 5.00
- pIC50 (second compound 10 µM): < 5.00
Structure (SMILES): CC(C)NCC(C(=O)N1CCN(c2ncnc3c2C(C)CC3O)CC1)c1ccc(Cl)cc1 (stereo not drawn) + Cc1nc(NC(=O)N2CCCC2C(N)=O)sc1-c1ccnc(C(C)(C)C(F)(F)F)c1
- viability, T/C [1]: 110%
- viability, T/C [2]: 138%
- viability, T/C [3]: 140%
- viability, T/C [4]: 110%
- viability, T/C [5]: 108%
- viability, T/C [6]: 96.8%
- viability, T/C [7]: 111%
- viability, T/C [8]: 109%
- viability, T/C [9]: 125%
- viability, T/C [10]: 103%
- viability, T/C [11]: 106%
- viability, T/C [12]: 115%
- viability, T/C [13]: 99%
- viability, T/C [14]: 117%
- viability, T/C [15]: 99.7%
- viability, T/C [16]: 87.8%
- viability, T/C [17]: 119%
- viability, T/C [18]: 98.4%
- viability, T/C [19]: 106%
- viability, T/C [20]: 119%
- viability, T/C [21]: 109%
- viability, T/C [22]: 88.6%
- viability, T/C [23]: 121%
- viability, T/C [24]: 98.6%
- viability, T/C [25]: 79.6%
- viability, T/C [26]: 90.4%
- viability, T/C [27]: 103%
- viability, T/C [28]: 95.8%
- viability, T/C [29]: 81.5%
- viability, T/C [30]: 98.2%
- viability, T/C [31]: 95.8%
- viability, T/C [32]: 76.9%
- viability, T/C [33]: 73.6%
- viability, T/C [34]: 88.5%
- viability, T/C [35]: 93.8%
- viability, T/C [36]: 82.5%

- pIC50 (second compound 0.0316 µM): < 6.00
- pIC50 (second compound 0.1 µM): < 6.00
- pIC50 (second compound 0.316 µM): < 6.00
- pIC50 (second compound 1 µM): < 6.00
- pIC50 (second compound 3.16 µM): 6.12
- pIC50 (second compound 10 µM): 6.49
Structure (SMILES): CCN1CCN(Cc2ccc(Nc3ncc(F)c(-c4cc(F)c5nc(C)n(C(C)C)c5c4)n3)nc2)CC1 + Cc1nc(NC(=O)N2CCCC2C(N)=O)sc1-c1ccnc(C(C)(C)C(F)(F)F)c1
- viability, T/C [37]: 84.8%
- viability, T/C [38]: 103%
- viability, T/C [1]: 123%
- viability, T/C [2]: 91.5%
- viability, T/C [3]: 107%
- viability, T/C [4]: 105%
- viability, T/C [39]: 124%
- viability, T/C [40]: 104%
- viability, T/C [7]: 131%
- viability, T/C [8]: 88.9%
- viability, T/C [9]: 103%
- viability, T/C [10]: 76.2%
- viability, T/C [41]: 103%
- viability, T/C [42]: 91.8%
- viability, T/C [13]: 123%
- viability, T/C [14]: 104%
- viability, T/C [15]: 118%
- viability, T/C [16]: 73.6%
- viability, T/C [43]: 118%
- viability, T/C [44]: 108%
- viability, T/C [19]: 115%
- viability, T/C [20]: 108%
- viability, T/C [21]: 96.8%
- viability, T/C [22]: 58.9%
- viability, T/C [45]: 119%
- viability, T/C [46]: 92.9%
- viability, T/C [25]: 111%
- viability, T/C [26]: 93.5%
- viability, T/C [27]: 84.2%
- viability, T/C [28]: 38.7%
- viability, T/C [47]: 81.5%
- viability, T/C [48]: 84.4%
- viability, T/C [31]: 94%
- viability, T/C [32]: 66.7%
- viability, T/C [33]: 52.8%
- viability, T/C [34]: 28.1%

- pIC50 (second compound 0.0316 µM): < 5.00
- pIC50 (second compound 0.1 µM): < 5.00
- pIC50 (second compound 0.316 µM): < 5.00
- pIC50 (second compound 1 µM): < 5.00
- pIC50 (second compound 3.16 µM): < 5.00
- pIC50 (second compound 10 µM): < 5.00
Structure (SMILES): C[C@@H](NC(=O)c1ncnc(N)c1Cl)c1ncc(C(=O)Nc2cc(C(F)(F)F)c(Cl)cn2)s1 + Cc1nc(NC(=O)N2CCCC2C(N)=O)sc1-c1ccnc(C(C)(C)C(F)(F)F)c1
- viability, T/C [1]: 94.3%
- viability, T/C [2]: 92.5%
- viability, T/C [3]: 77.2%
- viability, T/C [4]: 91.5%
- viability, T/C [5]: 96.2%
- viability, T/C [6]: 69.2%
- viability, T/C [7]: 100%
- viability, T/C [8]: 80.3%
- viability, T/C [9]: 95.8%
- viability, T/C [10]: 77.4%
- viability, T/C [11]: 105%
- viability, T/C [12]: 93.7%
- viability, T/C [13]: 99.8%
- viability, T/C [14]: 82.9%
- viability, T/C [15]: 123%
- viability, T/C [16]: 93.4%
- viability, T/C [17]: 87%
- viability, T/C [18]: 85%
- viability, T/C [19]: 91.4%
- viability, T/C [20]: 102%
- viability, T/C [21]: 99%
- viability, T/C [22]: 102%
- viability, T/C [23]: 81.1%
- viability, T/C [24]: 86.1%
- viability, T/C [25]: 90.8%
- viability, T/C [26]: 91.5%
- viability, T/C [27]: 92.4%
- viability, T/C [28]: 89%
- viability, T/C [29]: 89.5%
- viability, T/C [30]: 83%
- viability, T/C [31]: 76.3%
- viability, T/C [32]: 70.1%
- viability, T/C [33]: 85.7%
- viability, T/C [34]: 68.7%
- viability, T/C [35]: 72.2%
- viability, T/C [36]: 80.2%

- pIC50 (second compound 0.0316 µM): < 7.00
- pIC50 (second compound 0.1 µM): < 7.00
- pIC50 (second compound 0.316 µM): < 7.00
- pIC50 (second compound 1 µM): < 7.00
- pIC50 (second compound 3.16 µM): < 7.00
- pIC50 (second compound 10 µM): < 7.00
Structure (SMILES): Cn1ncnc1[C@H]1c2n[nH]c(=O)c3cc(F)cc(c23)N[C@@H]1c1ccc(F)cc1 + Cc1nc(NC(=O)N2CCCC2C(N)=O)sc1-c1ccnc(C(C)(C)C(F)(F)F)c1
- viability, T/C (second compound 0.0316 µM, first compound 0.000316 µM): 103%
- viability, T/C (second compound 0.0316 µM, first compound 0.001 µM): 83.4%
- viability, T/C [37]: 130%
- viability, T/C [38]: 100%
- viability, T/C [1]: 91.6%
- viability, T/C [2]: 130%
- viability, T/C (second compound 0.1 µM, first compound 0.000316 µM): 106%
- viability, T/C (second compound 0.1 µM, first compound 0.001 µM): 109%
- viability, T/C [39]: 129%
- viability, T/C [40]: 91.2%
- viability, T/C [7]: 117%
- viability, T/C [8]: 131%
- viability, T/C (second compound 0.316 µM, first compound 0.000316 µM): 110%
- viability, T/C (second compound 0.316 µM, first compound 0.001 µM): 119%
- viability, T/C [41]: 89.4%
- viability, T/C [42]: 82.2%
- viability, T/C [13]: 117%
- viability, T/C [14]: 117%
- viability, T/C (second compound 1 µM, first compound 0.000316 µM): 108%
- viability, T/C (second compound 1 µM, first compound 0.001 µM): 104%
- viability, T/C [43]: 103%
- viability, T/C [44]: 119%
- viability, T/C [19]: 134%
- viability, T/C [20]: 89.3%
- viability, T/C (second compound 3.16 µM, first compound 0.000316 µM): 94%
- viability, T/C (second compound 3.16 µM, first compound 0.001 µM): 97.1%
- viability, T/C [45]: 86.5%
- viability, T/C [46]: 90.2%
- viability, T/C [25]: 90.4%
- viability, T/C [26]: 92%
- viability, T/C (second compound 10 µM, first compound 0.000316 µM): 99.3%
- viability, T/C (second compound 10 µM, first compound 0.001 µM): 85.5%
- viability, T/C [47]: 88.6%
- viability, T/C [48]: 77.8%
- viability, T/C [31]: 91.5%
- viability, T/C [32]: 89.8%
